Laboratory results reported in ChEMBL document CHEMBL2177080, “N-[5-(5-fluoropyridin-3-yl)-1H-pyrazol-3-yl]-4-piperidin-1-ylbutyramide (SEN78702, WYE-308775): a medicinal chemistry effort toward an α7 nicotinic acetylcholine receptor agonist preclinical candidate” (J Med Chem, 2012).
Activity calls are given as the source filed them. The rule behind the calls is not given here.

Legend:
[1] = target: Acetylcholine receptor; alpha1/beta1/delta/gamma (Homo sapiens, UniProt P02708+P07510+P11230+Q07001); test: Agonist activity at alpha1beta1gammadelta nAChR nAchR in human TE671 cells assessed as stimulation of calcium flux by FLIPR; format: functional, cell-based; conditions: for pIC50: TE-671
Sequence of Acetylcholine receptor; alpha1/beta1/delta/gamma (P02708 whole entry): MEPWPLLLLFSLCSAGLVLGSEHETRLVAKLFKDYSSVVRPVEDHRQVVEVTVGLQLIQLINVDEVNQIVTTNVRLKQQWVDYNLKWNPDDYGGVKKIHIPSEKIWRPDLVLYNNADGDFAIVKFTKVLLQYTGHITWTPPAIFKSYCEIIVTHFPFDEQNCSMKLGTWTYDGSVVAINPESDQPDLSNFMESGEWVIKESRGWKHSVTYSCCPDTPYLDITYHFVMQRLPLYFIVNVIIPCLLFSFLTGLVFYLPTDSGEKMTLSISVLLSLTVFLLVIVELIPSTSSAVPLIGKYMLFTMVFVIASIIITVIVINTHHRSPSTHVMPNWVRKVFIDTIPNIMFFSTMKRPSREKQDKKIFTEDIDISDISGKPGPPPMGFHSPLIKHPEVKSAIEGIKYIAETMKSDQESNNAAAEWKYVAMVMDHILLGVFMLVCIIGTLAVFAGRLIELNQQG
Sequence of Acetylcholine receptor; alpha1/beta1/delta/gamma (P07510 whole entry): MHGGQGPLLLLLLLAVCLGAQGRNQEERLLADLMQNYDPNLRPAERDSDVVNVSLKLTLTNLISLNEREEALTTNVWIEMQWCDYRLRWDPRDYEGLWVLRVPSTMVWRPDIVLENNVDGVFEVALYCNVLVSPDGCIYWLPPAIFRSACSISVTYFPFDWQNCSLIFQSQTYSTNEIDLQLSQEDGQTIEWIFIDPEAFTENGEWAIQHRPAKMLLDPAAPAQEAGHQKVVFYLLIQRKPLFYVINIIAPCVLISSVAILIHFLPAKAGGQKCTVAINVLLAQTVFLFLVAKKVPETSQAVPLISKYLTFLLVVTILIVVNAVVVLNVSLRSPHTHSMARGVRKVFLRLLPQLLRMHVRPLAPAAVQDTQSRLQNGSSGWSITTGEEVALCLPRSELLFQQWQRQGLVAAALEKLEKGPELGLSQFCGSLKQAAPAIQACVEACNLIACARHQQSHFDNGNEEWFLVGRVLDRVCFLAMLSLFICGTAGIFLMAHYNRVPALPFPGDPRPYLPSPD
Sequence of Acetylcholine receptor; alpha1/beta1/delta/gamma (P11230 whole entry): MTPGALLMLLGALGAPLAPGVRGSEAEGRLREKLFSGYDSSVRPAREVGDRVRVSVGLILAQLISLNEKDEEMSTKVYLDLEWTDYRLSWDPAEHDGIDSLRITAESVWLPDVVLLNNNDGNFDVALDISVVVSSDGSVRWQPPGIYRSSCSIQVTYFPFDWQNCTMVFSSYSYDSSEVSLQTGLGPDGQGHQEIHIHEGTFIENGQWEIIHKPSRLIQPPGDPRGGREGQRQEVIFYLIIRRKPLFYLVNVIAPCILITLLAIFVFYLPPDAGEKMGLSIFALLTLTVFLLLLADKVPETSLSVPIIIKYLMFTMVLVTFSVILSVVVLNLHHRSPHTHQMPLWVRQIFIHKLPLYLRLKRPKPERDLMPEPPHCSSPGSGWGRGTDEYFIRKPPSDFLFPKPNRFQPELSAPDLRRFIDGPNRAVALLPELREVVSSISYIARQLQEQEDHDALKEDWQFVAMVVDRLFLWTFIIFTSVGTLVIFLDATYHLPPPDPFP
Sequence of Acetylcholine receptor; alpha1/beta1/delta/gamma (Q07001 whole entry): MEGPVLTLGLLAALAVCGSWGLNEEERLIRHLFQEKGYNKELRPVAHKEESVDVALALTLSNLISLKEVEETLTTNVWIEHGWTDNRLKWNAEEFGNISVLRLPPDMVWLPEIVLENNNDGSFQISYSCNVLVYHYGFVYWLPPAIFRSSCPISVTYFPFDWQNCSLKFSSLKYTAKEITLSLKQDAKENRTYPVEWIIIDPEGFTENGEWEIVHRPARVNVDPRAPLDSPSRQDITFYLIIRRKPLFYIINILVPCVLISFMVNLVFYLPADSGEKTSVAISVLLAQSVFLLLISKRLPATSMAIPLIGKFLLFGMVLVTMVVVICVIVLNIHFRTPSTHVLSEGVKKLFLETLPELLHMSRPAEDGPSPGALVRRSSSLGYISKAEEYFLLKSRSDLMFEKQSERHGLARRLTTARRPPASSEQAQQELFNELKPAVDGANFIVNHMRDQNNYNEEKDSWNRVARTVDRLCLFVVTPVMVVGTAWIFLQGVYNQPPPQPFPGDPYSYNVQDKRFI

[2] = target: Voltage-gated inwardly rectifying potassium channel KCNH2 (Homo sapiens, UniProt Q12809); test: Inhibition of human ERG expressed in CHO cells; format: cell-based
Sequence of Voltage-gated inwardly rectifying potassium channel KCNH2 (Q12809 whole entry): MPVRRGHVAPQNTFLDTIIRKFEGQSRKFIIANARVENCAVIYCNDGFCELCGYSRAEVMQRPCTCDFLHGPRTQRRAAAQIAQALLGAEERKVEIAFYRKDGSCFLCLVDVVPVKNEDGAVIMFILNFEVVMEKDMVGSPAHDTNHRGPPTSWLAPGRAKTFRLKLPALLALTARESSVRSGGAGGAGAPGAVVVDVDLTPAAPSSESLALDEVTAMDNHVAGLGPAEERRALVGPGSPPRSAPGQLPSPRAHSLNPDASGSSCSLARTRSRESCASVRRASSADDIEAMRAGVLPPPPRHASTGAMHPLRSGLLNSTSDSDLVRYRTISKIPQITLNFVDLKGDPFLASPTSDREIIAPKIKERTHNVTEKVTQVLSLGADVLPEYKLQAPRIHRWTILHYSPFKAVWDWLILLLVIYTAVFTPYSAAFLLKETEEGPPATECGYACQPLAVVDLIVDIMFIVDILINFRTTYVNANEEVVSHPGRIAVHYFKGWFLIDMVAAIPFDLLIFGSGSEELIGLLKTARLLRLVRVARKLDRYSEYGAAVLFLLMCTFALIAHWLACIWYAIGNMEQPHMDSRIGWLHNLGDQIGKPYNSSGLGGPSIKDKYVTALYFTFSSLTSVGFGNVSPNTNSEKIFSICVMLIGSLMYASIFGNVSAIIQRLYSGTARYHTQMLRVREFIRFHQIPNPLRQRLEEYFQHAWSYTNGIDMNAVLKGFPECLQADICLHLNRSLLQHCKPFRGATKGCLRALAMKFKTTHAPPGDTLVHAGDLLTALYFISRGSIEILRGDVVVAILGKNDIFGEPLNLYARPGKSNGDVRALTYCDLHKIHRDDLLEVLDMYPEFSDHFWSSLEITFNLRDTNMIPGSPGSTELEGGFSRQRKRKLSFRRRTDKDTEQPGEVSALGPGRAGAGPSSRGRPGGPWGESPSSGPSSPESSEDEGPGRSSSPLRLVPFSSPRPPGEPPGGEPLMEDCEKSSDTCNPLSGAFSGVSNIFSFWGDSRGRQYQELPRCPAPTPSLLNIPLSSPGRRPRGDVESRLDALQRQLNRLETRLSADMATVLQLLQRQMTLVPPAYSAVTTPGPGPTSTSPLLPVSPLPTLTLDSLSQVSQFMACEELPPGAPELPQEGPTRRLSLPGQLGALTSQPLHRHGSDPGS

[3] = target: T1, Neuronal acetylcholine receptor subunit alpha-7 (Rattus norvegicus, UniProt Q05941); test: Agonist activity at rat alpha7 nAchR expressed in rat GH4C1 cells assessed as stimulation of calcium flux by FLIPR
T1 sequence (Q05941 whole entry): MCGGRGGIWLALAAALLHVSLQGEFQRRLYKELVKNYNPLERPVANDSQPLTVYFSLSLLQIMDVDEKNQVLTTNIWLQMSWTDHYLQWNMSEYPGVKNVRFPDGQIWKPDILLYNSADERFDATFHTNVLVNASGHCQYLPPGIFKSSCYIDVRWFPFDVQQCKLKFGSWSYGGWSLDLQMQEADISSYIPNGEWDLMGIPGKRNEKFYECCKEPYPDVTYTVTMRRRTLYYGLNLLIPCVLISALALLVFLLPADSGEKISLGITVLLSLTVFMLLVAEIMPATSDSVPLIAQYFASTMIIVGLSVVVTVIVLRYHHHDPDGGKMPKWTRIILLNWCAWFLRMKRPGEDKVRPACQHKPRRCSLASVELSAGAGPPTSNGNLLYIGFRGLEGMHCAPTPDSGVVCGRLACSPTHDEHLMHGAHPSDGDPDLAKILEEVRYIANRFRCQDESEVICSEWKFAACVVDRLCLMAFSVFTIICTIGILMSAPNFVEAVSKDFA

[4] = target: Neuronal acetylcholine receptor subunit alpha-3 (Homo sapiens, UniProt P32297); test: Agonist activity at alpha3 nAchR in human SH-SY5Y cells assessed as stimulation of calcium flux by FLIPR; format: functional, cell-based
Sequence of Neuronal acetylcholine receptor subunit alpha-3 (P32297 whole entry): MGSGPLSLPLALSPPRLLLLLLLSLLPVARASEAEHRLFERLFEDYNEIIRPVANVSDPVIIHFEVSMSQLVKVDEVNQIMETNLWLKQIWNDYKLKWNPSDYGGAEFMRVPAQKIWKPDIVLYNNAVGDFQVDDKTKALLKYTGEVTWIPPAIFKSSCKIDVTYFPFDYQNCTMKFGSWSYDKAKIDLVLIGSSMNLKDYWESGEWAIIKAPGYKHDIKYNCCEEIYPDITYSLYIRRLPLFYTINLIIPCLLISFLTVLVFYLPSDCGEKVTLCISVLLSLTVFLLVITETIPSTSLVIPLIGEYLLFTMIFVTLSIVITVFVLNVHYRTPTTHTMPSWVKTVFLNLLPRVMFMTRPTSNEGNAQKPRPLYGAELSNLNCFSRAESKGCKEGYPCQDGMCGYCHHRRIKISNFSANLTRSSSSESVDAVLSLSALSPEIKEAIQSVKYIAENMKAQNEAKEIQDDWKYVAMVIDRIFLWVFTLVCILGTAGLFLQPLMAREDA

Plasma = test: Stability in rat plasma assessed as compound remaining incubated for 3 hrs; format: ADME, cell-free
[5] = target: T2, 5-hydroxytryptamine receptor 3A (Homo sapiens, UniProt P46098); test: (§1) Agonist activity at human 5HT3R expressed in HEK293 cells assessed as stimulation of calcium flux by FLIPR; format: functional, cell-based
T2 sequence (P46098 whole entry): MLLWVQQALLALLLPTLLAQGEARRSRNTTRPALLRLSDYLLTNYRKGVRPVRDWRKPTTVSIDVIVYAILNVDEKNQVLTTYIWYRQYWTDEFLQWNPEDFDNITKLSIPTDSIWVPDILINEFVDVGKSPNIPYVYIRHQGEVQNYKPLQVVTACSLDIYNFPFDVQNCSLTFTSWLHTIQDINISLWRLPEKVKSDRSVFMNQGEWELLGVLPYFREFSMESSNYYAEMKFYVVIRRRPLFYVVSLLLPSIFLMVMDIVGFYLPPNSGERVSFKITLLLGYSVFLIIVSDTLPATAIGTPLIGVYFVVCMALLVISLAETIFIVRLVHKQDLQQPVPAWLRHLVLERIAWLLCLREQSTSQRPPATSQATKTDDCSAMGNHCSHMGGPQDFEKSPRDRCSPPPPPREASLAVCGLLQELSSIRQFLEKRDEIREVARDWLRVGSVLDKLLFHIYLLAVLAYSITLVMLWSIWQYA

[6] = target: Neuronal acetylcholine receptor subunit alpha-7 (Rattus norvegicus) (UniProt Q05941); test: Agonist activity at rat alpha7 nAchR expressed in rat GH4C1 cells assessed as stimulation of calcium flux by FLIPR relative to nicotine; format: functional, cell-based; conditions: GH4-C1
Sequence of Neuronal acetylcholine receptor subunit alpha-7 (Rattus norvegicus) (Q05941 whole entry): as the sequence (Q05941 whole entry) above

[7] = target: T3, 5-hydroxytryptamine receptor 3A (Homo sapiens) (UniProt P46098); test: as §1; format: functional, cell-based
T3 sequence (whole entry): T2 sequence (P46098 whole entry)

[8] = Cmax in Wistar rat brain 3 mg/kg, po; format: ADME, organism-based; design: dose 3 mg/kg, route oral
Rattus norvegicus [9] = test: Induction of memory enhancement Wistar rat at 1 to 10 mg/kg, po administered 30 mins before acquisition trial by novel object recognition test; format: functional, organism-based
Rattus norvegicus [10] = test: Induction of memory enhancement Wistar rat administered orally 30 mins before acquisition trial by novel object recognition test; format: functional; conditions: po, read-out: MED
[11] = Tmax in Wistar rat 10 mg/kg, po; format: ADME, organism-based; design: dose 10 mg/kg, route oral; conditions: in vivo
[12] = target: Neuronal acetylcholine receptor subunit alpha-7 (Homo sapiens, UniProt P36544); test: Agonist activity at human alpha7 nAchR by patch clamp assay; format: functional
Sequence of Neuronal acetylcholine receptor subunit alpha-7 (Homo sapiens, UniProt P36544) (P36544 whole entry): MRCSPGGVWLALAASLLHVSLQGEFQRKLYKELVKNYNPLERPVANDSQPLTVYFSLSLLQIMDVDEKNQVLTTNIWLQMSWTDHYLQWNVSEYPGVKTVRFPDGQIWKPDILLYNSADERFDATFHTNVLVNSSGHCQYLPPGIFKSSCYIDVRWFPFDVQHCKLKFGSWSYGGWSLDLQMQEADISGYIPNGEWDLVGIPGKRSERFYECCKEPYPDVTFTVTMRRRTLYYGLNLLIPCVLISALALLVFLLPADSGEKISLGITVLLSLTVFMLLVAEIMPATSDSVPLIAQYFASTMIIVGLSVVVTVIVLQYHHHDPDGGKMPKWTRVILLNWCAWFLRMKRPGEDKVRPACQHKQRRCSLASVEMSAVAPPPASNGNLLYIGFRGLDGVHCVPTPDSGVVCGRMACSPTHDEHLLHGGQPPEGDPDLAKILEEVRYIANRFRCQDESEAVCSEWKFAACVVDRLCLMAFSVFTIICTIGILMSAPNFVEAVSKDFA

[13] = target: Histamine H3 receptor (Homo sapiens) (UniProt Q9Y5N1); test: Inhibition of histamine H3 receptor at 10 uM
[14] = target: T4, Alpha-2B adrenergic receptor (Homo sapiens) (UniProt P18089); test: Inhibition of alpha2b adrenergic receptor at 10 uM
T4 sequence (whole entry): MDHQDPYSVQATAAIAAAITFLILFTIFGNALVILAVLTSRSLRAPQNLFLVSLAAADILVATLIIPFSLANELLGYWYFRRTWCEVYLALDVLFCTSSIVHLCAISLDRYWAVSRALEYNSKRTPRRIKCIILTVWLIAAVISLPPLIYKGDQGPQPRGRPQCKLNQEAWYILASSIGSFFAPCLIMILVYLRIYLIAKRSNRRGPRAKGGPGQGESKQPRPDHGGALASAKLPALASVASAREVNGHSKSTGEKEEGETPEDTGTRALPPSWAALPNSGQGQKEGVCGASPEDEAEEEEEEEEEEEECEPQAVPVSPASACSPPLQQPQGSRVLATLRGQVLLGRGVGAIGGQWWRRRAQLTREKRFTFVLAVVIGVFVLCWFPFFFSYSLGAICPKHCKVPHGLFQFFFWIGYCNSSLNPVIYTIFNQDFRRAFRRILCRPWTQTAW

[15] = target: T5, Alpha-2C adrenergic receptor (Homo sapiens) (UniProt P18825); test: Inhibition of alpha2c adrenergic receptor at 10 uM
T5 sequence (whole entry): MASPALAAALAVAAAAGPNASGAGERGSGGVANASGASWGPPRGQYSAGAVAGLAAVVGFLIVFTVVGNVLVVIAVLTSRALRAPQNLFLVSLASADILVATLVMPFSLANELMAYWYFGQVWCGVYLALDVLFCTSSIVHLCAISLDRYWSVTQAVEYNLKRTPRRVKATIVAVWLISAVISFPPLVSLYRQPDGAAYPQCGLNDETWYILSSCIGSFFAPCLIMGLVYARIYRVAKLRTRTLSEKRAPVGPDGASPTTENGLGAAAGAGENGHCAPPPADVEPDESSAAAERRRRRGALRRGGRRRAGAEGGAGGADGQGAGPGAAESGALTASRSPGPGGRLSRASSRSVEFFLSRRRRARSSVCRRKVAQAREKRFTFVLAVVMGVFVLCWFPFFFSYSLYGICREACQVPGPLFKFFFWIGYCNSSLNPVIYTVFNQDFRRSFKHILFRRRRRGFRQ

[16] = Toxicity in rat during 7-day tolerability study; format: organism-based; conditions: in vivo
Rattus norvegicus [17] = test: Inhibition of MK801-Induced prepulse inhibition deficits in Long Evans rat at 1 to 10 mg/kg, po administered 60 mins before MK-801 challenge; format: functional, organism-based
Rattus norvegicus [18] = test: Induction of memory enhancement Wistar rat at 1 to 10 mg/kg, po administered 30 mins before acquisition trial pre-treated with 3 mg/kg alpha7 selective antagonist methyllycaconitin by novel object recognition test; format: functional, organism-based
[19] = target: T1, Neuronal acetylcholine receptor subunit alpha-7; test: Displacement of [3H]-epibatidine from rat alpha7 nAchR expressed in rat GH4C1 cell membranes; design: species or system GH4-C1, Membrane
[20] = target: T1, Neuronal acetylcholine receptor subunit alpha-7; test: Agonist activity at rat alpha7 nAchR expressed in rat GH4C1 cells by patch clamp assay; format: functional, cell-based, GH4-C1
Rattus norvegicus [21] = test: Inhibition of MK801-Induced prepulse inhibition deficits in Long Evans rat administered orally 60 mins before MK-801 challenge; format: functional; conditions: po, read-out: MED
[22] = target: T6, Alpha-2A adrenergic receptor (Homo sapiens) (UniProt P08913); test: Inhibition of alpha2a adrenergic receptor at 10 uM
T6 sequence (whole entry): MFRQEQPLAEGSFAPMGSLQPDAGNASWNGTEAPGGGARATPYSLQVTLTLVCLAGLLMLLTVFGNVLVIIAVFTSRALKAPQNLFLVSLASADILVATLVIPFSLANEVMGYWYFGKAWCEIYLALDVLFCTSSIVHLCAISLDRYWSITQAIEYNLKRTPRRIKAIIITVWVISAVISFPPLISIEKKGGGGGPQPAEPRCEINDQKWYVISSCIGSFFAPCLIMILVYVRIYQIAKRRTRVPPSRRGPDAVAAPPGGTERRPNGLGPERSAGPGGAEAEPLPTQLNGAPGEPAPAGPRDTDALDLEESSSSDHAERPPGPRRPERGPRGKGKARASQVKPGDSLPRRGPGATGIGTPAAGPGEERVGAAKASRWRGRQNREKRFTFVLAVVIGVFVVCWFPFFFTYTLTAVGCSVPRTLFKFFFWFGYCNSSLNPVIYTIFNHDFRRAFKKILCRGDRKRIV

[23] = Clearance in Wistar rat 2 mg/kg, iv; format: ADME, organism-based; design: dose 2 mg/kg, route intravenous; conditions: in vivo

SMILES: O=C(CCCN1CCCCC1)Nc1cc(-c2cccc(F)c2)n[nH]1
- pIC50 [1]: Active
- IC50 [2]: 1290 nM
- EC50 [3]: 832 nM
- pIC50 [4]: Active
- Stability (Plasma): Stable

SMILES: COc1ccc(-c2cc(NC(=O)CCCN3CCOCC3)[nH]n2)cc1
- EC50 [3]: 6610 nM

SMILES: COc1ccc(-c2cc(NC(=O)CCCN3CCCCC3)[nH]n2)cc1
- IC50 [1]: > 31600 nM
- IC50 [5]: > 31600 nM
- EC50 [3]: 417 nM
- IC50 [4]: > 31600 nM
- Stability (Plasma): Stable

SMILES: COc1ccc(-c2cc(NC(=O)CCN3CCCN(C(C)=O)CC3)[nH]n2)cc1
- Emax [6]: > 90%
- EC50 [3]: 8510 nM

SMILES: CC(C)(C)c1cc(NC(=O)CCCN2CCCCC2)[nH]n1
- pIC50 [1]: inactive
- pIC50 [7]: inactive
- EC50 [3]: > 31600 nM
- pIC50 [4]: inactive

SMILES: COc1ccc(-c2cc(NC(=O)CCCCCN3CCCN(C(C)=O)CC3)[nH]n2)cc1
- Emax [6]: > 90%

SMILES: COc1ccc(-c2cc(NC(=O)CCCN3CCCN(C(C)=O)CC3)[nH]n2)cc1
- Emax [6]: > 90%
- EC50 [3]: 912 nM
- Stability (Plasma): Stable

SMILES: COc1ccc(-c2cc(NC(=O)CCCN3CCCOCC3)[nH]n2)cc1
- EC50 [3]: 1170 nM

SMILES: COc1cccc(-c2cc(NC(=O)CCCN3CCCCC3)[nH]n2)c1
- pIC50 [1]: Active
- EC50 [3]: 468 nM
- pIC50 [4]: Active
- Stability (Plasma): Stable

SMILES: O=C(CCCN1CCCCC1)Nc1cc(-c2cncc(F)c2)n[nH]1
- Cmax [8]: 55 ng/g
- Activity (Rattus norvegicus [9]): Active
- minimal effective dose (Rattus norvegicus [10]): 3 mg/kg
- Tmax [11]: 1 h
- EC50 [12]: 10000 nM
- inhibition [13]: 62%
- inhibition [14]: 64%
- inhibition [15]: 57%
- EC50 [3]: 740 nM
- MTD at 7 day [16]: ≤ 100 mg/kg/day
- inhibition (Rattus norvegicus [17]): Active
- Activity (Rattus norvegicus [18]): inactive
- Ki [19]: 390 nM
- EC50 [20]: 10700 nM
- Stability (Plasma): Stable
- minimal effective dose (Rattus norvegicus [21]): 3 mg/kg
- inhibition [22]: 73%
- clearance [23]: 23 mL/min/kg

SMILES: COc1ccc(-c2cc(NC(=O)CCCCCN3CCCN(C(C)=O)CC3)n[nH]2)cc1
- EC50 [3]: 1200 nM

SMILES: COc1ccc(-c2cc(NC(=O)CCCN3CCCCCC3)[nH]n2)cc1
- IC50 [1]: > 31600 nM
- IC50 [5]: > 31600 nM
- EC50 [3]: 912 nM
- IC50 [4]: 7940 nM
